pIC50: −log10 of the molar value.
Assays:
[1] = Metabolic (microsomal) stability assay, rat liver microsomes (RLM); assay type: in vitro ADME; conditions: 1 μM test compound, 37° C.
Procedure: (§1) Metabolic (Microsomal) Stability Assay: The metabolic degradation of the test compound is assayed at 37° C. with pooled liver microsomes (mouse (MLM), rat (RLM) or human (HLM)). The final incubation volume of 74 μL per time point contains TRIS buffer (pH 7.5; 0.1 M), magnesium chloride (6.5 mM), microsomal protein (0.5 mg/mL for mouse/rat, 1 mg/mL for human specimens) and the test compound at a final concentration of 1 μM. Following a short preincubation period at 37° C., the reactions are initiated by addition of 8 μL beta-nicotinamide adenine dinucleotide phosphate, reduced form (NADPH, 10 mM) and terminated by transfering an aliquot into solvent after different time points. Additionally, the NADPH-independent degradation is monitored in incubations without NADPH, terminated at the last time point by addition of acetonitrile. The quenched incubations are pelleted by centrifugation (1811 g, 5 min). An aliquot of the supernatant is assayed by LC-MS/MS for the amount of parent compound. In vitro intrinsic clearance (CLint, in vitro) is calculated from the time course of the disappearance of the test drug during the microsomal incubation. Each plot is fitted to the first-order elimination rate constant as C(t)=C0*exp(−ke*t), where C(t) and C0 are the concentration of unchanged test drug at incubation time t and that at preincubation and ke is the disappearance rate constant of the unchanged drug. Subsequently, CLint, in vitro (μL min^−1·amount protein) values are converted to CLint, in vitro (mL min^−1·kg^−1) for the whole body. CLint, in vitro data are scaled up using physiological parameters. For better across species comparison the predicted clearance is expressed as percent of the liver blood flow [% QH] in the individual species. In general, high stability (corresponding to low % QH) of the compounds across species is desired.

CYP3A4 = CYP3A4 (Homo sapiens (Human), UniProt P08684); test: Time dependent inhibition of CYP3A4 assay (TDI 3A4); assay type: in vitro ADME; conditions: hydroxy-midazolam formation after 30 min relative to 0 min preincubation; 25 uM compound; human liver microsomes; midazolam substrate
CYP3A4, sequence (P08684 whole entry): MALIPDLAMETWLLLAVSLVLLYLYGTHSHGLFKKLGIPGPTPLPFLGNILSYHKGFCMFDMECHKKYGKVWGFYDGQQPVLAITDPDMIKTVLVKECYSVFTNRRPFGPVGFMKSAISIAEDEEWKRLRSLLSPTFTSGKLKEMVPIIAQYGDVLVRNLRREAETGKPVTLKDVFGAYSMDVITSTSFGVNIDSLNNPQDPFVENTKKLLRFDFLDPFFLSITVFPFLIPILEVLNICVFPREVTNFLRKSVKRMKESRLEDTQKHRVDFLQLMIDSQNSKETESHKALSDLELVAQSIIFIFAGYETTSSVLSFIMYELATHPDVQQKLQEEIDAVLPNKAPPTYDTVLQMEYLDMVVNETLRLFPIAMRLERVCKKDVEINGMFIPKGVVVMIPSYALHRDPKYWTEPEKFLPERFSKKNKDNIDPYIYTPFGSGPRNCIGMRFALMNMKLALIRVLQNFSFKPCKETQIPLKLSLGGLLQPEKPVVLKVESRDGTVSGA
Procedure: Time Dependent Inhibition of CYP3A4 Assay (TDI 3A4):
After preincubation, the incubate is diluted 1:10 and the substrate midazolam is added for the main incubation (15 min). The main incubation is quenched with acetonitrile and the formation of hydroxy-midazolam is quantified via LC/MS-MS. The formation of hydroxy-midazolam from the 30 min preincubation relative to the formation from the 0 min preincubation is used as a readout. Values of less than 100% mean that the substrate midazolam is metabolized to a lower extend upon 30 min preincubation compared to 0 min preincubation. In general low effects upon 30 min preincubation are desired (corresponding to values close to 100%)

[2] = Metabolic (microsomal) stability assay, mouse liver microsomes (MLM); assay type: in vitro ADME; conditions: 1 μM test compound, 37° C.
Procedure: as §1

[3] = Metabolic (microsomal) stability assay, human liver microsomes (HLM); assay type: in vitro ADME; conditions: 1 μM test compound, 37° C.
Procedure: as §1

[4] = molecular target: protein-protein interaction between SOS1 and KRAS G12D (Homo sapiens (Human), UniProt Q07889); test: KRAS::SOS1 AlphaScreen Binding Assay
protein-protein interaction between SOS1 and KRAS G12D, sequence (Q07889 564-1049, stated change not applied): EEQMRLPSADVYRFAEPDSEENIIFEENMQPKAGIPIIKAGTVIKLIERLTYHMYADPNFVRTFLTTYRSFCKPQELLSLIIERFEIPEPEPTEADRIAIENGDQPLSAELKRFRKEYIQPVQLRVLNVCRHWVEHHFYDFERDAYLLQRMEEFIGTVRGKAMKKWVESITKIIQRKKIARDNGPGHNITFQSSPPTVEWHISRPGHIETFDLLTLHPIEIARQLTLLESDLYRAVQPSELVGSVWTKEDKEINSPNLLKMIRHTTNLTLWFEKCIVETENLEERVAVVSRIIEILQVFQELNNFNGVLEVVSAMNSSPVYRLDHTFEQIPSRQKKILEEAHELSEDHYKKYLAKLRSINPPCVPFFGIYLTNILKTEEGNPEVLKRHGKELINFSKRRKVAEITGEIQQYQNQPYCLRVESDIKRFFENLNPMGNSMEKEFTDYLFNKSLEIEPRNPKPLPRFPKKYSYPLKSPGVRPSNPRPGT
Summary of the method: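 Nucleotide-exchange interaction read by AlphaScreen (GSH acceptor / streptavidin donor beads, 10 μg/mL each): 10 nM KRAS G12D(1-169)-Avi, 10 μM GDP, 5 nM GST-SOS1(564-1049), 1% DMSO. Compound preincubated 30 min, then beads 60 min at RT in the dark; 11-point 1:5 series from 100 μM, duplicates; IC50 by 4-parameter logistic fit.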

[5] = system: ERK phosphorylation in DLD-1 cells (KRAS G13D); test: ERK Phosphorylation Assay (AlphaLISA SureFire Ultra p-ERK1/2); assay type: cell-based; conditions: Homo sapiens, 1 h compound, EGF 50 ng/mL 10 min, read-out: pERK
Procedure: ERK Phosphorylation Assay
Low IC50 values are indicative of high potency of the SOS1 inhibitor compounds in this assay setting.
ERK phosphorylation assays are performed using the following human cell lines: DLD-1 (ATCC CCL-221): human colon cancer with a KRAS G13D mutation;
DLD-1 cells (ATCC CCL-221) are seeded at 50,000 cells per well in/60 μL of RPMI with 10% FBS, non-essential amino acids, pyruvate and glutamax in Greiner TC 384 plates. The cells are incubated for 1 h at room temperature and then incubated overnight in an incubator at 37° C. and 5% CO2 in a humidified atmosphere. 60 nL compound solution (10 mM DMSO stock solution) is then added using a Labcyte Echo 550 device. After a 1 h incubation in the aforementioned incubator, 3 μL Epidermal Growth Factor (EGF, final concentration 50 ng/mL) is added. 10 minutes later the medium is removed, and the cells lysed by addition of 20 μL of 1.6-fold lysis buffer from the AlphaLISA SureFire Ultra pERK1/2 (Thr202/Tyr204) Assay Kit with added protease inhibitors, 100 nM trametinib+100 nM staurosporine. After 20 minutes of incubation at room temperature with shaking, 6 μL of each lysate sample is transferred to a 384-well Proxiplate and analyzed for pERK (Thr202/Tyr204) with the AlphaLISA SureFire Ultra pERK1/2 (Thr202/Tyr204) Assay Kit. 3 μL Acceptor Mix and 3 μL Donor Mix are added under subdued light and incubated for 2 h at room temperature in the dark, before the signal is measured on a Perkin Elmer Envision plate reader using 384 AlphaScreen settings for Proxiplates. Data are fitted by iterative calculation with variable hill slope. The sigmoidal curve slope is fitted using a default fitting curve to ascertain IC50 values.

[6] = Table 20, KRAS::SOS1 AlphaScreen (SOS1 / KRAS G12D)
[7] = KRAS G12D::SOS1 AlphaScreen, measured without EDTA unless marked with an asterisk

| SMILES | RLM [% QH] [1] [% QH] | TDI 3A4 [%] (CYP3A4) | MLM [% QH] [2] [% QH] | HLM [% QH] [3] [% QH] | pIC50 [4, 6] | pIC50 [5] | pIC50 [4, 7] |
| --- | --- | --- | --- | --- | --- | --- | --- |
| Cc1nc(N[C@H](C)c2cccc(C(F)(F)F)c2)c2cn(C3(C)CC3)c(=O)cc2n1 [I-25] | <23 | 90 | <24 | <24 | 7.89 |  |  |
| Cc1nc(N[C@H](C)c2cccc(C(F)F)c2C)c2cn(C3(C)CCOC3)c(=O)cc2n1 (stereo partly shown) [I-123] |  | 87 |  |  |  | 6.93 | 8.52 |
| Cc1c(=O)n(C2(C(F)F)CC2)cc2c(N[C@H](C)c3cccc(C(F)F)c3F)ncnc12 [I-163] |  | 82 |  |  |  |  | 7.82 |
| Cc1nc(N[C@H](C)c2cccc(C(F)F)c2C)c2cn(C3(C)CC3)c(=O)cc2n1 [I-20] |  | 93 |  |  | 8.52 |  |  |
| Cc1nc(N[C@H](C)c2cccc(C(C)(F)F)c2F)c2cn(C3(CF)CC3)c(=O)cc2n1 [I-53] |  | 84 |  |  | 8.40 | 7.13 |  |
| Cc1nc(N[C@H](C)c2cccc(C(F)F)c2F)c2cn(C3(CF)CC3)c(=O)c(F)c2n1 [I-81] | <23 | 85 | 64 | <24 | 8.22 |  |  |
| Cc1nc(N[C@H](C)c2cccc3c2CCC3(F)F)c2cn(C3(C)CC3)c(=O)cc2n1 [I-57] |  | 87 |  |  | 8.70 | 7.20 |  |
| Cc1nc(N[C@H](C)c2cccc(C(F)(F)F)c2F)c2cn(C3(C(F)F)CC3)c(=O)cc2n1 [I-98] | <23 | 85 | <24 | <24 | 8.10 |  |  |
| C[C@@H](Nc1ncnc2cc(=O)n(C3(C)CC3)cc12)c1cccc(C(F)(F)F)c1 [I-75] |  | 86 |  |  | 7.82 |  |  |
| Cc1nc(N[C@H](C)c2cccc(C(F)F)c2F)c2cn(C3(C)CC3)c(=O)c(F)c2n1 [I-80] | <23 | 86 | 50 | <24 | 8.05 |  |  |
| Cc1c(=O)n(C23CC(C2)C3)cc2c(N[C@H](C)c3cccc(C(F)F)c3F)ncnc12 [I-169] | 44 | 84 | 64 | <24 |  |  | 7.92 |
| Cc1nc(N[C@H](C)c2cccc(C(F)(F)C(C)(C)O)c2F)c2cn(C3(C(F)F)CC3)c(=O)c(F)c2n1 [I-89] |  | 83 |  |  | 8.70 |  |  |
| Cc1nc(N[C@H](C)c2cccc(C(F)(F)F)c2)c2cn(C3(C(F)F)CC3)c(=O)cc2n1 [I-97] | <23 |  | <24 | <24 | 7.85 | 7.09 |  |
| Cc1c(=O)n([C@@H]2C[C@H]2C(F)F)cc2c(N[C@H](C)c3cccc(C(F)F)c3F)ncnc12 [I-166] | 38 | 87 | 48 | 24 |  |  | 7.59 |
| Cc1nc(N[C@H](C)c2cccc(C(F)(F)F)c2C)c2cn(C3CCOCC3)c(=O)cc2n1 [I-49] |  | 92 |  |  | 8.22 | 7.09 |  |
| Cc1nc(N[C@H](C)c2cccc(C(C)(F)F)c2F)c2cn(C3(CF)CC3)c(=O)c(F)c2n1 [I-87] |  | 81 |  |  | 8.40 | 7.00 |  |
| Cc1nc(N[C@H](C)c2cccc(C(F)(F)F)c2C)c2cn(C3(c4ccccc4)CCOCC3)c(=O)cc2n1 [I-127] |  | 97 |  |  |  |  | 7.64 |
| Cc1nc(N[C@H](C)c2cccc3c2OCC3(F)F)c2cn(C3(C)CC3)c(=O)cc2n1 [I-101] | <23 |  | 59 | 36 | 8.40 | 7.10 |  |
| Cc1nc(N[C@H](C)c2cccc(C(F)(F)F)c2C)c2cn(C3(C)CCOC3)c(=O)cc2n1 (stereo partly shown) [I-126] |  | 88 |  |  |  | 7.29 | 8.30 |
| Cc1c(=O)n(C23CC(F)(C2)C3)cc2c(N[C@H](C)c3cccc(C(F)F)c3F)ncnc12 [I-170] | 37 | 82 | 51 | <24 |  |  | 7.92 |
| Cc1nc(N[C@H](C)c2cccc(C(C)(F)F)c2F)c2cn(C3(C(F)F)CC3)c(=O)cc2n1 [I-54] | <23 | 84 | 55 | <24 | 8.30 |  |  |
| Cc1nc(N[C@H](C)c2cccc(C(C)(F)F)c2)c2cn(C3(C)CC3)c(=O)cc2n1 [I-50] | <23 | 82 | <24 | <24 | 8.05 |  |  |
| Cc1nc(N[C@H](C)c2cccc(C(F)F)c2C)c2cn(C3CCC3)c(=O)cc2n1 [I-22] |  | 87 |  |  | 8.22 |  |  |

Reference: US10829487B2, “Benzylamino substituted pyridopyrimidinones and derivatives as SOS1 inhibitors” (Boehringer Ingelheim International GmbH, priority 2017, dated 2020)
